One data set concerns the target PKR(G332S) (Homo sapiens, UniProt P30613, G332S). The data set can be described thus: Luminescence Assay (Kinase Glo Plus) of PKR activation. Type of data set: biochemical. The following applies: G332S variant; Luminescence Assay of Example 2. The method, then: (§1) PKR Activating Compounds can be identified with the biochemical Luminescence Assay of Example 2. The PKR activating activity of a series of chemical compounds was evaluated using the Luminescence Assay below, including compounds designated Compound 1, and Compound 2, or mixtures thereof.
(§2) For each tested compound, the ability to activate PKR was determined using the following Luminescence Assay. The effect of phosphorylation of adenosine-5′-diphosphate (ADP) by PKR is determined by the Kinase Glo Plus Assay (Promega) in the presence or absence of FBP (D-fructose-1,6-diphosphate; BOC Sciences, CAS: 81028-91-3) as follows. Unless otherwise indicated, all reagents are purchased from Sigma-Aldrich. All reagents are prepared in buffer containing 50 mM Tris-HCl, 100 mM KCl, 5 mM MgCl2, and 0.01% Triton X100, 0.03% BSA, and 1 mM DTT. Enzyme and PEP (phosphoenolpyruvate) are added at 2× to all wells of an assay-ready plate containing serial dilutions of test compounds or DMSO vehicle. Final enzyme concentrations for PKR(wt), PKR(R510Q), and PKR(G332S) are 0.8 nM, 0.8 nM, and 10 nM respectively. Final PEP concentration is 100 μM. The Enzyme/PEP mixture is incubated with compounds for 30 minutes at RT before the assay is initiated with the addition of 2×ADP and KinaseGloPlus. Final concentration of ADP is 100 μM. […] For assays containing FBP, that reagent is added at 30 μM upon reaction initiation. Reactions are allowed to progress for 45 minutes at RT until luminescence is recorded by the BMG PHERAstar FS Multilabel Reader. The compound is tested in triplicate at concentrations ranging from 42.5 μM to 2.2 nM in 0.83% DMSO. AC50 measurements were obtained by the standard four parameter fit algorithm of ActivityBase XE Runner (max, min, slope and AC50). The AC50 value for a compound is the concentration (μM) at which the activity along the four parameter logistic curve fit is halfway between minimum and maximum activity.
(§3) As set forth in Table 2 below, AC50 values are defined as follows: ≤0.1 μM (+++); >0.1 μM and ≤1.0 μM (++); >1.0 μM and ≤40 μM (+); >40 μM (0).
A general note: Kinase-Glo reads ATP consumption through a luciferase reaction.

A further data set deals with PKR(R510Q) (Homo sapiens, UniProt P30613, R510Q). The description is as above. The following applies: R510Q variant; Luminescence Assay of Example 2. Type of data set: biochemical. The method, then: as §1, §2, §3
PKR(R510Q), sequence (P30613 whole entry R510Q): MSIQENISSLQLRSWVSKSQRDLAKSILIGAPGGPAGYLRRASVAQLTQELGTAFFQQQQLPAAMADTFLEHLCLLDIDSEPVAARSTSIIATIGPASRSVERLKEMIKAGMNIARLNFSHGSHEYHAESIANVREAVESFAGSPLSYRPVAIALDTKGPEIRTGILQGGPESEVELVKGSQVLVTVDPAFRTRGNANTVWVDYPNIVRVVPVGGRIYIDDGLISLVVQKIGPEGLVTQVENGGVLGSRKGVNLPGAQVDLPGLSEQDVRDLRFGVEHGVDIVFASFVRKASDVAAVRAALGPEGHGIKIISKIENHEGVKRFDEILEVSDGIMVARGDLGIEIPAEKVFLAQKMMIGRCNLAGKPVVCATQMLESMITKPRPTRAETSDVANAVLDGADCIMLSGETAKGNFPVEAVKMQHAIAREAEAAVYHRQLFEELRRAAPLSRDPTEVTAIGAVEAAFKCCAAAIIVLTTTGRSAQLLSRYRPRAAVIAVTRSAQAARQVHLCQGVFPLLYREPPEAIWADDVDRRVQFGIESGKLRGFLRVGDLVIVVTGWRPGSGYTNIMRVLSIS
The next data set concerns the target PKR(wt) (Homo sapiens, UniProt P30613). Described as above. As to conditions: wild type; Luminescence Assay of Example 2. Type of data set: biochemical. How it is done: as §1, §2, §3
A short description of data set [1]: Phase 1: plasma pharmacokinetics in SCD patients. Type of data set: in vivo. The following applies: human, oral, SCD (N = 5), single dose 700 mg. From the text:
This is a first-in-human (FIH), Phase 1 study of Compound 1 that will characterize the safety, PK, and PD of Compound 1 after a single dose and after repeated dosing first in healthy adult volunteers and then in adolescents or adults with sickle cell disease. Initially, a dose range of Compound 1 in single ascending dose (SAD) escalation cohorts will be explored in healthy subjects. Enrollment of healthy subjects into 2-week multiple ascending dose (MAD) escalation cohorts will be initiated once the safety and PK from at least two SAD cohorts is available to inform the doses for the 2-week MAD portion of the study. The MAD cohorts will then run in parallel to the single dose cohorts. A single dose cohort is planned to understand food effects (FE) on the PK of Compound 1. […] Multiple dose studies in SCD subjects will then be initiated upon completion of MAD studies in healthy volunteers. Compound 1 will be administered in 25 mg and 100 mg tablets delivered orally, prepared as described in Example 1, Step 7.
In this study, SAD/MAD cohorts are randomized (3 to 1) to receive Compound 1 or placebo (P). Compound 1 was evaluated first in 4 healthy SAD cohorts and 4 healthy MAD (14-day dosing period) cohorts. Based on the safety, and PK/PD profile from HS, Compound 1 is then evaluated in 1 SCD SAD cohort and 2 SCD MAD cohorts. Specifically, based on the safety and pharmacokinetic/pharmacodynamics (PK/PD) profile in healthy volunteer studies, Compound 1 is evaluated in patients (pts) with SCD, first in a single dose (SD or SAD) cohort and then in multiple-dose (MD or MAD) cohorts (14-day and 12-week). Safety assessments include AEs, vital signs, ECGs and laboratory parameters. PK/PD blood sampling was performed on Day 1 (SAD/MAD) and Day 14 (MAD) and up to 72 h after the last dose and at the end-of-study visit. PD parameters included 2,3-DPG, ATP, and p50 in all cohorts with additional PD studies (including oxygen scan) performed only in the SCD cohorts. PD parameters included 2,3-DPG, ATP, p50, RBC deformability with controlled deoxygenation and reoxygenation (Lorrca® oxygen scan) and varying osmolality (Lorrca® osmoscan)). To maintain study blind, pt identifiers were removed when needed.
A potential exposure to the maximum PD response dose range to evaluate in patients with SCD was identified. Based on the safety and PK/PD profile in healthy volunteer studies, a 700 mg single dose was evaluated in patients with SCD (n=7). A single 700 mg dose of Compound 1 was selected to evaluate in patients with SCD to enable daily dosing cohorts at lower exposures.
In the SCD single dose cohort, seven patients received either Compound 1 (n=5) or placebo (n=2).

Data set [2] deals with H295R adreno-cortical carcinoma cell line. The data set can be described thus: Steroid modulation screen in vitro. Type of data set: cell-based. The following applies: tested 200 to 0.0002 μM; only at the top concentration. The method, then: To assess potential effects on steroidogenesis, Compound 1 was screened for steroid modulation in vitro using the H295R adreno-cortical carcinoma cell line (at 200 to 0.0002 μM) and in an assay to monitor cell viability (MTT Kit). Compound 1 indicated steroid modulation potential (% over vehicle) only at 200 μM, the top concentration tested, with 100% cellular viability at concentrations≤20 μM (90% viability at 200 μM).

Another data set concerns the target T1, CYP2C9 (Homo sapiens, UniProt P11712).
T1 construct: from tissue; host or cells: human liver microsomes
The data set can be described thus: Single substrate DDI assay, reversible CYP inhibition in human liver microsomes. Type of data set: in vitro ADME. (Liver microsomes are vesicles of endoplasmic reticulum, rich in cytochrome P450 enzymes.)

Data set [3] is described as follows: Solubility in water or buffered solutions. Type of data set: physicochemical. The following applies: aqueous buffer, pH about 1.07 to about 8.69.
The nature of the next data set: Log D7.4. Type of data set: physicochemical. As to conditions: pH 7.4.

In brackets after ≈: the same amount, converted by molar mass. Bounds are passed on as bounds.

Usually AC50 stands for the concentration giving half of the maximal activity seen. Broadly, the AUC(0-inf) is the area under the concentration-time curve extrapolated to infinity. A high value points to more exposure. The Cmax is the highest concentration seen after dosing. The half-life is how long it takes for the measured level to halve. In general, Tmax refers to the time at which the peak concentration occurs. As a reminder, the IC50 is the midpoint of a concentration-inhibition curve. Low values mean higher potency, high ones lower potency. The solubility is the dissolved amount per volume that the medium holds. Read a high solubility as much dissolved substance. By logD is commonly meant the decadic logarithm of the distribution of all forms, ionised or not, between an organic phase and buffer at a given pH. Read a high logD as higher lipophilicity.

PKR(G332S), sequence (P30613 whole entry G332S): as the sequence (P30613 whole entry R510Q) above, with G332S, Q510R counted along it
T1 sequence (P11712 whole entry): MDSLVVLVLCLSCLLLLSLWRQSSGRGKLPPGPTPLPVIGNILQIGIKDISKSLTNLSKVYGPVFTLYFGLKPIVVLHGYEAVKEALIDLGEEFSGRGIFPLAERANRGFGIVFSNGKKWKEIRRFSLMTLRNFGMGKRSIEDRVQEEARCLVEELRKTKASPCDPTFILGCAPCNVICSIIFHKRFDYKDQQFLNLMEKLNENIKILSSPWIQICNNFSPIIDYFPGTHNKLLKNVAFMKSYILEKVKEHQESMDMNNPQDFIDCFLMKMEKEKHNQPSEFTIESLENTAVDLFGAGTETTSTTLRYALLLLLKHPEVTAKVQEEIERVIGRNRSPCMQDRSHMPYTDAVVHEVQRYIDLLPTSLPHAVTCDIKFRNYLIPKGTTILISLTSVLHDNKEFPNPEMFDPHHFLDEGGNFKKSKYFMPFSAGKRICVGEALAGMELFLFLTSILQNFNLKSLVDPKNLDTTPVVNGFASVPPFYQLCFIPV
PKR(wt), sequence (P30613 whole entry): as the sequence (P30613 whole entry R510Q) above, with Q510R counted along it

Regarding `O=C([C@H](CO)c1ccccc1)N1CC2=C(C1)CN(S(=O)(=O)c1cnc3c(c1)OCCO3)C2` (single isomer, unassigned) [Compound 1], the AC50 on PKR(G332S), on PKR(R510Q) and on PKR(wt) was < 1000 nM in each case. The same compound came in with an AUC(0-inf) in data set [1] (geometric mean (geometric CV)) of 7300 ng·h/mL. This compound also showed a Cmax in data set [1] (geometric mean (geometric CV)) of 2580 ng/mL. In data set [1] (geometric mean (geometric CV)), this compound had a half-life of 14.9 h. For the same compound, in data set [1] (median [min, max]), the Tmax amounted to 2 h. Moreover, the “concentration at which steroid modulation potential (% over vehicle) was indicated” value in data set [2] was found to be 200 µM. The IC50 at CYP2C9 is > 30000 nM. This compound had a solubility in data set [3] of 22 to 25 µg/mL (≈ 48.1 to 54.6 µM). In the data set “Log D7.4”, this compound had a logD of 1.09.

The values are drawn from patent US20220087983A1, “ACTIVATING PYRUVATE KINASE R” (FORMA Therapeutics, Inc., priority 2020, published 2022).
